Reference: patent US11845803B2, “Combination therapies for treatment of BCMA-related cancers and autoimmune disorders” (Fred Hutchinson Cancer Center, priority 2017, dated 2023)

Test system: primary human myeloma tumor cells
Test: BCMA-specific T-ChARM T cells co-cultured with primary myeloma cells in the presence of GSI (cytokines, proliferation)
Type: cell-based
Description: (A) IL-2 production by BCMA CAR-T cells (BCMA-specific T-ChARM C11 3ST-CD28 and BCMA-specific T-ChARM C11 3ST-41BB) or control CD19sh CAR (short spacer)-T cells co-cultured with primary human myeloma tumor cells for 24 hours alone or with various concentrations of GSI RO429097 (0.003 μM to 3.0 μM).
(B) IFN-γ production by BMCA T-ChARM T cells co-cultured with myeloma cells at various concentrations of RO429097.
(O) Intracellular staining showing IFN-γ production (y-axis) and CD8 expression (x-axis) by T-ChARM T cells of the present disclosure cultured with primary MM cells from 2 patients in the absence (0 μM; left panels) or presence (1 μM; right panels) of GSI RO4929097.
(P) IFN-γ production (geometric mean fluorescence intensity (gMFI)) by T-ChARM T cells of the present disclosure cultured with primary MM cells in the presence of the indicated concentration of RO4929097 (x-axis).
(Q) IFN-γ production (normalized MFI; y-axis) by T-ChARM T cells of the present disclosure cultured with primary MM cells in the presence of the indicated concentration of RO4929097 (x-axis).
(R) Proliferation of T-ChARM T cells of the present disclosure in the presence of primary MM cells that were untreated (grey shading) or treated with 1.0 μM GSI RO4929097.
To examine the effect of a GSI on CAR T cell activity against BCMA^+ multiple myeloma, IL-2 production by BCMA CAR-T cells (BCMA-specific T-ChARM C11 3ST-CD28 and BCMA-specific T-ChARM C11 3ST-41BB) or control CD19sh CAR (short spacer)-T cells was measured after co-culture with primary human myeloma tumor cells for 24 hours in media containing at various concentrations of GSI RO429097 (0.003 μM to 3.0 μM) (FIG. 4A).
Next, the effect of GSI on T cell functionality of T cells containing a BCMA-specific T-ChARM was examined.

SMILES: CC(C)(C(=O)NCC(F)(F)C(F)(F)F)C(=O)N[C@@H]1C(=O)Nc2ccccc2-c2ccccc21 [RO4929097]
- IL-2 production by BCMA T-ChARM T cells (24 hours co-culture, GSI 0.003 μM to 3.0 μM): dose dependent increase
- proliferation of CFSE-labeled BCMA-specific T-ChARM T cells (3 days co-culture with primary myeloma cells): increased in a dose dependent manner
- IFN-γ production and CD8 expression by co-cultured T-ChARM T cells (GSI treatment of primary myeloma tumor samples): greatly improved
- IFNγ production by BCMA T-ChARM T cells (co-culture with myeloma cells, various GSI concentrations): increased
- proliferation of T-ChARM T cells (primary MM cells treated with 1.0 μM GSI vs untreated): increased proliferation
- GSI concentration at which effects on T-ChARM T cell IFN-γ were seen (primary myeloma tumor samples): ≥ 0.1 µM
